According to patent publication US8828931B2, “Bifunctional molecules for inhibiting HIV entry” (priority 2008, dated 2014):
Where two headings read alike, the source gives them in different places. No end group written: not given here.

What was measured:
HIV-1 IIIB (B, X4) = test system: HIV-1 IIIB (B, X4)
Method: The inhibitory activity of the bifunctional molecule on HIV-1 IIIB infection was determined by ELISA for p24 production (Jiang S et al. J Exp Med 174:1557-1563, 1991). Briefly, MT-2 cells were infected with HIV-1IIIB at 100 TCID50 (50% tissue culture infective dose) in RPMI 1640 medium containing 10% FBS in the presence or absence of an antigen specific antiserum or IgG antibody in serial 2-fold dilutions at 37° C. overnight. The culture supernatants were then removed and fresh media were added. On day 4 post-infection, the culture supernatants were collected and mixed with equal volumes of 5% Triton X-100 for the detection in the p24 protein ELISA.

[1] = In vitro stability in human serum, residual activity by cell-cell fusion inhibition assay; conditions: 16 μM, 37° C., 100% human serum
From the text: (§1) Samples were collected at different intervals and tested for the residual concentrations of the active component using cell-cell fusion inhibition assay as described above.

NL4-3V38A/N42G = test system: NL4-3V38A/N42G
Method: Briefly, 2×10^5 or 5×10^5 CEMx174 5.25M7 cells were infected with HIV-1 or HIV-2, respectively, at 100 TCID50 (50% tissue culture infective dose) in RPMI 1640 medium containing 10% FBS in the absence or presence of an antisera or purified IgG antibodies at graded concentrations overnight. On the fourth day post-infection, cells were harvested and lysed using a lysis buffer (Promega, Madison, Wis.). The luciferase activity was measured by Ultra 384 luminometer reader (Tecan) and the percent inhibition was calculated.

[2] = test system: HIV-1 IIIB-mediated cell fusion (H9/HIV-1 IIIB effector cells, MT-2 target cells); conditions: H9/HIV-1 IIIB and MT-2 cells, dye transfer
Method: HIV-1-mediated cell-cell fusion was determined by a dye transfer assay (Lu H et al. J Virol Methods 107:155-161, 2003) using Calcein AM-labeled HIV-1IIIB chronically infected H9 (H9/HIV-1 IIIB) cells as effector cells and MT-2 cells as target cells.

[3] = In vitro stability in PBMC culture, residual activity by cell-cell fusion inhibition assay; conditions: 16 μM, 37° C.
From the text: as §1

proteinase K = proteinase K (Parengyodontium album, UniProt P06873); assay: Resistance to proteolysis by proteinase K; conditions: 4 μM in PBS, immobilized proteinase K 0.1 unit/ml, 37° C.
92US657 (B, R5) = format: cell-based, HIV-1
Method: (§2) Briefly, the peripheral blood mononuclear cells (PBMCs) were isolated from the blood of healthy donors using a standard density gradient (Histopaque-1077, Sigma) centrifugation. After incubation at 37° C. for 2 hr, the nonadherent cells were collected and resuspended at 5×10^5/ml in RPMI 1640 medium containing 10% FBS, 5 μg of phytohemagglutinin (PHA)/ml, and 100 U of IL-2/ml, followed by incubation at 37° C. for 3 days. The PHA-stimulated cells were infected with the corresponding primary HIV-1 isolates at a multiplicity of infection (MOI) of 0.01 in the absence or presence of antisera at a serial 2-fold dilution. The supernatants were collected 7 days post-infection and tested for p24 antigen by ELISA as described above. The IC50 was calculated using the CalcuSyn
(§3) software as described above.

93IN101 (B, R5) = format: cell-based, HIV-1
Method: as §2, §3

Chain of proteinase K (P06873 106-384): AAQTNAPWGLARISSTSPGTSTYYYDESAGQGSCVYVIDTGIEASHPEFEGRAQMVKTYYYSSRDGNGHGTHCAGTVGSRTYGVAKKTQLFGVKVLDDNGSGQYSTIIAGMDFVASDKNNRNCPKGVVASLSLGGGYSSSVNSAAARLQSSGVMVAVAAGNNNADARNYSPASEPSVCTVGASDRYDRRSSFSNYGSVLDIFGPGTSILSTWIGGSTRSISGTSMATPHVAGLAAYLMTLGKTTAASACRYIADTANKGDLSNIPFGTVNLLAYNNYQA

Substance	IC50 (HIV-1 IIIB (B, X4); read-out: IC50, HIV-1 replication, IIIB (B, X4), MT-2 cells, p24) [nM]	IC90 (HIV-1 IIIB (B, X4); read-out: IC90, HIV-1 replication, IIIB (B, X4), MT-2 cells, p24) [nM]	IC50 (HIV-1 IIIB (B, X4); IIIB (B, X4)) [nM]	IC90 (HIV-1 IIIB (B, X4); IIIB (B, X4)) [nM]	residual activity in human serum after 6 days [1] [%]	inhibition of infection by T20-resistant strain (NL4-3V38A/N42G; concentration up to 2,000 nM)	IC50 (NL4-3V38A/N42G; read-out: IC50, HIV-1 replication, NL4-3V38A/N42G, T20-resistant HIV-1 strain, luciferase) [nM]	IC90 (NL4-3V38A/N42G; read-out: IC90, HIV-1 replication, NL4-3V38A/N42G, T20-resistant HIV-1 strain, luciferase) [nM]	IC50 ([2]; read-out: IC50, concentration for inhibiting HIV-1 IIIB-mediated cell fusion) [nM]	IC90 ([2]; read-out: IC90, concentration for inhibiting HIV-1 IIIB-mediated cell fusion) [nM]	time after which activity began to be lost in PBMC ([3]; PBMC in RPMI1640 with 10% FBS) [days]	activity lost in PBMC after 6 days incubation ([3]; PBMC, 6 days) [%]	treatment time with proteinase K after which activity was totally lost (proteinase K) [min]	IC50 (92US657 (B, R5)) [nM]	IC90 (92US657 (B, R5)) [nM]	IC50 (93IN101 (B, R5)) [nM]	IC90 (93IN101 (B, R5)) [nM]
TTWMAWDREINNYTSLIHSLIRRSQNQQEKNEQELLELDKWASLLWNWF [T1144-C10]	> 250	> 250	–	–	–	–	–	–	–	–	–	–	–	–	–	–	–
enfuvirtide	–	–	68.1	211	5	no inhibition	> 2000	> 2000	15.9	25.4	> 2	> 90	5	1.7	13	2.7	6.5
